Measurements taken from patent US11716994B2, “Combinations of Yersinia entomophaga and pesticides or other substances” (priority 2017, dated 2023).
Read-outs that look alike come from different tables or passages of the source.

How the values were obtained:
diamondback moth [1] = assay: whole plant or invertebrate; details: for LT50 (95% confidence intervals): 2nd instar diamondback moth; for mortality at 0.29 µg/mL: Plutella xylostella, foliar, Abbott's corrected
Source text: (§1) These were set to dry for 1 hr.
as §1
These were set to dry for 1 hr. Cabbage disks were then dipped in either 1% Luria broth (LB) media solution (controls and thiacloprid alone treatments) or in 1% cell free filtrate from a culture Y. entomophaga isolate O24G3R (Y. entomophaga alone or in combination with thiacloprid treatments).

black cutworm = assay: Leaf disk mortality assay, Y. entomophaga cells with chemical insecticides; details: for % Mort. Chem. / LT50 Chem.: black cutworm
diamondback moth [2] = assay: as above; details: for mortality at 0.29 µg/mL / mortality at 150 µg/mL: Plutella xylostella, foliar; for % Mort. Chem. / LT50 Chem.: diamondback moth
Colorado potato beetle = assay: Tomato leaf disk mortality assay, Y. entomophaga cells with chemical insecticides; details: for mortality at 0.88 µg/mL: Leptinotarsa decemlineata, in Solanum lycopersicum, foliar
cabbage looper [3] = details: for LT50 Chem. / % Mort. Chem.: Cabbage Looper
Yersinia entomophaga = assay: CFU counts after exposure of Yersinia entomophaga to insecticides; format: cell-based; details: 1 hour contact
Source text: To test combinations of Yersinia entomophaga and pesticides for their ability to produce a pesticidal effect, or an effect on plant growth or yield, we first put various insecticides in contact with Yersinia to identify insecticides that had minimal toxicity to Yersinia entomophaga. The logic was that, if Yersinia entomophaga is to function well in combination with a chemical insecticide, the chemical insecticide would ideally have low or no effect on the ability of Yersinia entomophaga to survive, grow and/or to function.
To perform this study, we selected amounts of various insecticides based on the percent of the specific insecticide in the insecticide composition obtained from a manufacturer. We also considered the application rate of the particular insecticide, as recommended by the manufacturer. […] Generally, the 1× amount was considered possibly the lowest amount of insecticide that may be considered as an effective amount for use in the combinations disclosed herein. For each insecticide, we also used a higher amount of insecticide (generally a 5× or 10× amount).
The 1× and 5×/10× amounts of each insecticide were added to tubes along with 1 ml of ethyl acetate. The tubes were mixed until the insecticides dissolved. The tubes were left open in a fume hood overnight to allow the ethyl acetate to evaporate. The insecticide remained in the tubes, as a solid coat on the interior surface of the tubes.
A growing culture of Yersinia entomophaga, grown in LB medium, was diluted and 1 ml of the diluted culture was added to each tube containing the dried insecticide. The tubes were mixed and then left on the bench top for 1 hour. Then, 100 μl from each tube was plated onto LB plates in triplicate in CFU assays. Plates were incubated at 25° C. for 48 hours and colonies were counted.

cabbage looper [4] = tested on: cabbage looper
fall armyworm = assay: Leaf disk mortality assay, Y. entomophaga cells with chemical insecticides
[5] = 3rd instar, deltamethrin 0.175 mg/L, isolate O43NEW 1×10^4 cfu/mL
[6] = 3rd instar, deltamethrin 1.75 mg/L, isolate O43NEW 1×10^4 cfu/mL
[7] = 48 h, read-out: % Mortality (2DAT)
[8] = 168 h, read-out: % Mortality (7DAT)
[9] = 120 h, read-out: % Mortality (5DAT)
[10] = 144 h, read-out: % Mortality (6DAT)
[11] = 3rd instar, emamectin benzoate 0.67 mg/L, isolate O23ZMJ 1×10^5 cfu/mL
[12] = 3rd instar, emamectin benzoate 0.002 mg/L, isolate O43NEW 1×10^3 cfu/mL

Compound: CC1(C)[C@H](C(=O)O[C@H](C#N)c2cccc(Oc3ccccc3)c2)[C@@H]1C=C(Br)Br [Deltamethrin]
- LT50 (95% confidence intervals) (diamondback moth [1]; deltamethrin 0.29 mg/L, O43NEW filtrate 1%, alone or combined): 11.58 days
- LT50 (95% confidence intervals) (diamondback moth [1]; deltamethrin […], O333A4 filtrate 1%, alone or combined): 12.78 days
- LT50 Chem. (diamondback moth [1]; Diamondback moth, deltamethrin 0.29 mg/L): 11.58 days
- % Mort. Chem. (diamondback moth [1]; Diamondback moth, deltamethrin 0.29 mg/L, 4 DAT): 16%
- LT50 Chem. (diamondback moth [1]; Diamondback moth, deltamethrin […]): 12.78 days
- mortality at 0.29 µg/mL (diamondback moth [1]; 48 h, read-out: % Mortality (2DAT), 2nd instar diamondback moth, deltamethrin 0.29 mg/L, O43NEW filtrate 1%, alone or combined, 2 DAT): 0%
- mortality at 0.29 µg/mL (diamondback moth [1]; 72 h, read-out: % Mortality (3DAT), 2nd instar diamondback moth, deltamethrin 0.29 mg/L, O43NEW filtrate 1%, alone or combined, 3 DAT): 5%
- mortality at 0.29 µg/mL (diamondback moth [1]; 96 h, read-out: % Mortality (4DAT), 2nd instar diamondback moth, deltamethrin 0.29 mg/L, O43NEW filtrate 1%, alone or combined, 4 DAT): 16%
- mortality at 0.29 µg/mL (diamondback moth [1]; 168 h, read-out: % Mortality (7DAT), 2nd instar diamondback moth, deltamethrin 0.29 mg/L, O43NEW filtrate 1%, alone or combined, 7 DAT): 21%
- mortality at 0.29 µg/mL (diamondback moth [1]; 216 h, read-out: % Mortality (9DAT), 2nd instar diamondback moth, deltamethrin 0.29 mg/L, O43NEW filtrate 1%, alone or combined, 9 DAT): 25%
- % Mortality (3DAT) (black cutworm; [5]): 5%
- % Mortality (6DAT) (black cutworm; [5]): 35%
- % Mortality (9DAT) (black cutworm; [5]): 55%
- % Mortality (10DAT) (black cutworm; [5]): 63%
- LT50 (95% confidence intervals) (black cutworm; [5]): 7.67 days
- % Mortality (3DAT) (black cutworm; [6]): 45%
- LT50 (95% confidence intervals) (black cutworm; [6]): 3.37 days
- % Mort. Chem. (black cutworm; Deltamethrin 0.175 mg/L, 6 DAT): 35%
- % Mort. Chem. (black cutworm; Deltamethrin 1.75 mg/L, 3 DAT): 45%
- LT50 Chem. (black cutworm; Deltamethrin alone 0.175 mg/L): 7.67 days
- LT50 Chem. (black cutworm; Deltamethrin alone 1.75 mg/L): 3.37 days
- LT50 (95% confidence intervals) (diamondback moth [2]; 3rd instar, deltamethrin 0.29 mg/L, isolate O43NEW 1×10^3 cfu/mL): 11.58 days
- mortality at 0.29 µg/mL (diamondback moth [2]; [7]): 0%
- mortality at 0.29 µg/mL (diamondback moth [2]; 96 h, read-out: % Mortality (4DAT)): 16%
- mortality at 0.29 µg/mL (diamondback moth [2]; [8]): 21%
- mortality at 0.29 µg/mL (diamondback moth [2]; 240 h, read-out: % Mortality (10DAT)): 32%
- mortality at 0.29 µg/mL (diamondback moth [2]; 336 h, read-out: % Mortality (14DAT)): 54%
- mortality at 0.29 µg/mL (diamondback moth [2]; […], read-out: % Mortality (8DAT)): 24%
- % Mort. Chem. (diamondback moth [2]; Deltamethrin 0.29 mg/L, 8 DAT): 24%
- LT50 Chem. (diamondback moth [2]; Deltamethrin alone 0.29 mg/L): 11.58 days
- LT50 (95% confidence intervals) (Colorado potato beetle; 3rd instar larva, deltamethrin 0.88 mg/L, isolate O43NEW 1×10^7 cfu/mL): 11.6 days
- % Mort. Chem. (Colorado potato beetle; Colorado potato beetle, Deltamethrin 0.88 mg/L, 5 DAT): 30%
- LT50 Chem. (Colorado potato beetle; Colorado potato beetle, Deltamethrin alone 0.88 mg/L): 11.60 days
- mortality at 0.88 µg/mL (Colorado potato beetle; [7]): 30%
- mortality at 0.88 µg/mL (Colorado potato beetle; [9]): 30%
- mortality at 0.88 µg/mL (Colorado potato beetle; [10]): 30%
- mortality at 0.88 µg/mL (Colorado potato beetle; [8]): 30%
- mortality at 0.88 µg/mL (Colorado potato beetle; 216 h, read-out: % Mortality (9DAT)): 30%

Compound: CN1COCN(Cc2cnc(Cl)s2)/C1=N\[N+](=O)[O-] [Thiamethoxam]
- LT50 (95% confidence intervals) in days (cabbage looper [3]; 3rd instar cabbage looper, thiamethoxam 150 mg/L, O43NEW undiluted filtrate, alone or combined): 6.97 (5.92-8.22) days
- LT50 Chem. (cabbage looper [3]; thiamethoxam 150 mg/L): 6.97 days
- % Mort. Chem. (cabbage looper [3]; thiamethoxam 150 mg/L, DAT column prints 62): 1.1%
- mortality at 150 µg/mL (diamondback moth [2]; [9]): 11%
- mortality at 150 µg/mL (diamondback moth [2]; [10]): 16%
- % Mort. Chem. (diamondback moth [2]; Thiamethoxam 150 mg/L, 6 DAT): 16%
- LT50 Chem. (diamondback moth [2]; Thiamethoxam alone 150 mg/L): 10.09 days

Compound: Emamectin benzoate
- Average CFU (Yersinia entomophaga; 1.5 mg insecticide): 489 CFU
- Average CFU (Yersinia entomophaga; 15 mg insecticide): 459 CFU
- LT50 (95% confidence intervals) in days (diamondback moth [1]; 3rd instar diamondback moth, emamectin benzoate 0.002 mg/L, O43NEW filtrate 1%, alone or combined): 6.21 (5.38-7.14) days
- LT50 Chem. (diamondback moth [1]; Diamondback moth, emamectin benzoate 0.002 mg/L): 6.21 days
- % Mort. Chem. (cabbage looper [4]; cabbage looper, Emamectin benzoate 0.02 mg/L, 7 DAT): 13%
- % Mortality (7DAT) (cabbage looper [4]; in vivo): 13%
- LT50 (95% confidence intervals) in days (cabbage looper [4]; in vivo): 7.61 (7.08-8.19) days
- LT50 Chem. (cabbage looper [4]; in vivo): 7.61 days
- % Mortality (5DAT) (cabbage looper [3]; 3rd instar cabbage looper, emamectin benzoate 0.02 mg/L, O43NEW undiluted filtrate, alone or combined, 5 DAT, Abbott's corrected): 5%
- % Mortality (12DAT) (cabbage looper [3]; 3rd instar cabbage looper, emamectin benzoate 0.02 mg/L, O43NEW undiluted filtrate, alone or combined, 12 DAT, Abbott's corrected): 94%
- LT50 Chem. (cabbage looper [3]; emamectin benzoate 0.02 mg/L): 7.22 days
- % Mort. Chem. (cabbage looper [3]; emamectin benzoate 0.02 mg/L, 5 DAT): 94%
- % Mortality (4DAT) (fall armyworm; [11]): 20%
- LT50 (95% confidence intervals) in days (fall armyworm; [11]): 5.10 (4.65-5.59) days
- LT75 (95% confidence intervals) in days (fall armyworm; 3rd instar, emamectin benzoate 2 mg/L, isolate O43NEW 1×10^6 cfu/mL): 6.54 (5.76-7.44) days
- % Mort. Chem. (fall armyworm; fall armyworm, Emamectin benzoate 0.67 mg/L, 4 DAT): 20%
- LT50 Chem. (fall armyworm; fall armyworm, Emamectin benzoate alone 0.67 mg/L): 5.10 days
- LT50 Chem. (fall armyworm; fall armyworm, Emamectin benzoate alone 2 mg/L): 6.54 days
- % Mortality (4DAT) (diamondback moth [2]; [12]): 5%
- LT50 (95% confidence intervals) in days (diamondback moth [2]; [12]): 6.21 (5.38-7.14) days
- % Mort. Chem. (diamondback moth [2]; Emamectin benzoate 0.002 mg/L, 4 DAT): 5%
- LT50 Chem. (diamondback moth [2]; Emamectin benzoate alone 0.002 mg/L): 6.21 days
